Results on eight compounds are retold here after patent US11453642B2, “Oxygenated amino- or ammonium-containing sulfonic acid, phosphonic acid and carboxylic acid derivatives and their medical use” (GRI BIO, INC., priority 2011, dated 2022).

Series [1] is described as follows: Pharmacokinetic study after a single oral administration to mice. Format: in vivo. Conditions: for cmax / tmax: single oral 100 mg/kg in 0.5% methylcellulose; for clast: concentration at last sampling time point; for AUC0-inf: extrapolated to infinity; for tlast: time of last sampling time point; for AUC0-t: time zero to tlast. The protocol:
The aim of the study was to evaluate pharmacokinetic (PK) properties of five different batches including anhydrates and monohydrates of the crystal form A of compound 1a (cf. Table 1 in Example 5) after a single oral administration to mice. Three of the forms were anhydrous and two were monohydrates.
Compound 1a was administered as a suspension of 0.5% methyl cellulose (Sigma-Aldrich) in water at a dose of 100 mg/kg (10 ml/kg) by oral gavage to non-fasted female Balb/c mice (n=3).
Blood was collected by decapitation at 0.5, 1, 2, 4, 8, 12, 24, and 48 h after administration. Blood plasma was isolated by centrifugation at 4° C. (20,000×g for 10 min), transferred to microtubes containing lithium-heparin and frozen in aliquots at −70° C. until assayed by mass-spectrometry. Mean plasma concentration-time profiles (semi-logarithmic) of the five polymorphic crystal forms of compound 1a are shown in FIG. 6.
For PK evaluation, summary statistics and plotting of concentration/time curves, all values below the lower limit of quantification (LLOQ) were set to zero.

In series [2] the test system is RBL-2H3 cells. As to the kind of experiment: Maximum tolerated concentration (cytotoxicity by lactate dehydrogenase release). The class given is cell-based, Rat. Particulars: for MTC (maximum tolerated concentration): highest concentration not causing cytotoxicity (LDH release), RBL-2H3 cells; for SI (safety index): ratio between MTC and IC50. An excerpt:
The safety index (SI) of a test compound is the ratio between the maximum tolerated concentration and the IC50 and is used as a measure of the relative safety of the test compound.
A general note: Release of lactate dehydrogenase indicates damage to the cell membrane.

The mark [3] stands for this setting: female Balb/c mice, plasma, 100 mg/kg.
Where [4] appears, read: female Balb/c mice, single oral 100 mg/kg, 100 mg/kg.
Setting [5] is: female Balb/c mice, single oral 100 mg/kg.
Where [6] appears, read: female Balb/c mice, single oral 100 mg/kg, terminal half-life, 100 mg/kg.

Like-named read-outs stand apart in the source and are kept apart here.

In series [1] (setting [3]), `CCCCCCCCCCCCCCCCN(C)CC(O)CS(=O)(=O)O` (centres unmarked) [KP-0722.11, 2-hydroxy-3-(N-methylhexadecylammonio)propane-sulfonate] registered a cmax of 571 ng/mL and a tmax of 2.0 h. Also, in series [1] (setting [4]), the MRT is reported as 4.8 h, the clast turned out to be 3.8 ng/mL, the AUC0-inf is 3179 ng·h/mL and the tlast worked out at 24.0 h. This compound yielded an AUC0-t in series [1] (setting [4]) of 3162 ng·h/mL.
Turning to `CCCCCCCCCCCCCCCCN(C)CC(O)CS(=O)(=O)O` (centres unmarked) [TN-0382.11, 2-hydroxy-3-(N-methylhexadecylammonio)propane-sulfonate], the “second plasma peak (time after administration)” value in series [1] (setting [5]) is 8 h. In addition, in series [1] (setting [3]), the cmax came to 627 ng/mL and the tmax is recorded as 1.0 h. In series [1] (setting [4]), the MRT is on record as 5.9 h, the clast was 3.4 ng/mL, the AUC0-inf is 3547 ng·h/mL and the tlast worked out at 24.0 h. In series [1] (setting [4]), the AUC0-t is 3535 ng·h/mL.
On to `CCCCCCCCCCCCCCN(C)CC(O)CS(=O)(=O)O` (centres unmarked) [Compound 1b, 2-hydroxy-3-(N-methyltetradecylammonio)propanesulfonate], for which, in series [2], the “MTC (maximum tolerated concentration)” value worked out at 100 µM and the “SI (safety index)” value turned out to be 19.6.
Regarding `CCCCCCCCCCCCCCCCN(C)CC(O)CS(=O)(=O)O` (centres unmarked) [2338-CF/30, 2-hydroxy-3-(N-methylhexadecylammonio)propane-sulfonate], the tmax in series [1] (setting [3]) is on record as 1.0 h. In series [1] (setting [4]), this compound registered a clast of 1.8 ng/mL and a tlast of 48.0 h. The cmax in series [1] (female, Balb/c, mouse, plasma, po, 100 mg/kg, female Balb/c mice, plasma, read-out: cmax) amounted to 1060 ng/mL. In series [1] (female, Balb/c, mouse, plasma, po, 100 mg/kg, female Balb/c mice, single oral 100 mg/kg, read-out: AUC0-inf), the AUC0-inf was 3140 ng·h/mL. Besides, the MRT in series [1] (female, Balb/c, mouse, plasma, po, 100 mg/kg, female Balb/c mice, single oral 100 mg/kg, read-out: MRT) came to 5.5 h. This compound also had a half-life in series [1] (female, Balb/c, mouse, plasma, po, 100 mg/kg, female Balb/c mice, single oral 100 mg/kg, terminal half-life) of 594 min. The AUC0-t in series [1] (female, Balb/c, mouse, plasma, po, 100 mg/kg, female Balb/c mice, single oral 100 mg/kg, read-out: AUC0-t) turned out to be 3120 ng·h/mL.
As for `CCCCCCCCCCCCCCCCN(C)CC(O)CS(=O)(=O)O` (centres unmarked) [2208-CF/1, 2-hydroxy-3-(N-methylhexadecylammonio)propane-sulfonate], the overall exposure result in series [1] (compared among the five forms, single oral 100 mg/kg) was “highest”. In series [1] (setting [3]), this compound returned a cmax of 1003 ng/mL and a tmax of 1.0 h. In series [1] (setting [4]), the MRT was 5.0 h, the clast was found to be 1.1 ng/mL, the AUC0-inf is 4412 ng·h/mL and the tlast is 48.0 h. Moreover, the AUC0-t in series [1] (setting [4]) came out at 4400 ng·h/mL. Moreover, the t1/2 in series [1] (setting [6]) was found to be 7.3 h.
Take `CCCCCCCCCCCCCC[N+](C)(C)CC(CS(=O)(=O)[O-])OC` (centres unmarked) [Compound 1d, 2-methoxy-3-(N,N-dimethyl-N-tetradecylammonio)-propane-1-sulfonate]: in series [2], the “MTC (maximum tolerated concentration)” value is 75 µM and the “SI (safety index)” value is on record as 22.7.
On to `CCCCCCCCCCCCCC[N+](C)(C)CC(CS(=O)(=O)[O-])OC(C)=O` (centres unmarked) [Compound 1e, 2-acetoxy-3-(N,N-dimethyltetradecylammonio)propanesulfonate], for which, in series [2], the “MTC (maximum tolerated concentration)” value is 100 µM and the “SI (safety index)” value is recorded as 25.6.
Regarding `CCCCCCCCCCCCCCCCN(C)CC(O)CS(=O)(=O)O` (centres unmarked) [KP-0726.11, 2-hydroxy-3-(N-methylhexadecylammonio)propane-sulfonate], the “second plasma peak (time after administration)” value in series [1] (setting [5]) was 8 h. Besides, in series [1] (setting [3]), the cmax came to 759 ng/mL and the tmax came to 1.0 h. Besides, in series [1] (setting [4]), the mean residence time (MRT) worked out at 5.5 h, the clast came to 1.2 ng/mL, the AUC0-inf is 3758 ng·h/mL and the tlast came out at 48.0 h. Moreover, the AUC0-t in series [1] (setting [4]) stood at 3744 ng·h/mL. Further, in series [1] (setting [6]), the t1/2 is 8.2 h.

What is called MRT is the average time that molecules of a dose stay in the body. Broadly, the half-life is the time needed for the level to fall by half in the phase considered. A higher half-life goes with slow loss.
